A word on the inhibition: it is the share of the control response that was lost under treatment.

Assay [1] deals with T1, Interleukin-1 receptor-associated kinase 4 (Homo sapiens) (UniProt Q9NWZ3).
T1 sequence (whole entry): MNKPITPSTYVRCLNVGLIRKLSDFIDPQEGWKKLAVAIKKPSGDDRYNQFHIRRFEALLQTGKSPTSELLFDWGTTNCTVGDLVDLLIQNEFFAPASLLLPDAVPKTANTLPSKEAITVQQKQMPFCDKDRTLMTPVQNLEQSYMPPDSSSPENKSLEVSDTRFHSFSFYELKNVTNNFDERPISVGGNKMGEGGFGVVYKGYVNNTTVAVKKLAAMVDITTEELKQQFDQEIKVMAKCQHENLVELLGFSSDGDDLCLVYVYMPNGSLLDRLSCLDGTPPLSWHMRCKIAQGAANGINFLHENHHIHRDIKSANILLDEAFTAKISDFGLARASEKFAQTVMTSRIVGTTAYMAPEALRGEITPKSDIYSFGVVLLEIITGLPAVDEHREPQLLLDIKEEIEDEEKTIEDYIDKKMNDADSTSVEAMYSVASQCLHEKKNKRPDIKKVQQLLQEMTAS
As to the kind of experiment: Inhibition of human IRAK4 catalytic domain expressed in baculovirus assessed as substrate phosphorylation using fluorescence-labelled peptides as substrate at 2 uM after 90 mins by microfluidic peptide phosphorylation assay.

The test system of assay [2] is T2, Receptor-type tyrosine-protein kinase FLT3 (Homo sapiens), P36888 [D835Y].
T2 sequence (whole entry): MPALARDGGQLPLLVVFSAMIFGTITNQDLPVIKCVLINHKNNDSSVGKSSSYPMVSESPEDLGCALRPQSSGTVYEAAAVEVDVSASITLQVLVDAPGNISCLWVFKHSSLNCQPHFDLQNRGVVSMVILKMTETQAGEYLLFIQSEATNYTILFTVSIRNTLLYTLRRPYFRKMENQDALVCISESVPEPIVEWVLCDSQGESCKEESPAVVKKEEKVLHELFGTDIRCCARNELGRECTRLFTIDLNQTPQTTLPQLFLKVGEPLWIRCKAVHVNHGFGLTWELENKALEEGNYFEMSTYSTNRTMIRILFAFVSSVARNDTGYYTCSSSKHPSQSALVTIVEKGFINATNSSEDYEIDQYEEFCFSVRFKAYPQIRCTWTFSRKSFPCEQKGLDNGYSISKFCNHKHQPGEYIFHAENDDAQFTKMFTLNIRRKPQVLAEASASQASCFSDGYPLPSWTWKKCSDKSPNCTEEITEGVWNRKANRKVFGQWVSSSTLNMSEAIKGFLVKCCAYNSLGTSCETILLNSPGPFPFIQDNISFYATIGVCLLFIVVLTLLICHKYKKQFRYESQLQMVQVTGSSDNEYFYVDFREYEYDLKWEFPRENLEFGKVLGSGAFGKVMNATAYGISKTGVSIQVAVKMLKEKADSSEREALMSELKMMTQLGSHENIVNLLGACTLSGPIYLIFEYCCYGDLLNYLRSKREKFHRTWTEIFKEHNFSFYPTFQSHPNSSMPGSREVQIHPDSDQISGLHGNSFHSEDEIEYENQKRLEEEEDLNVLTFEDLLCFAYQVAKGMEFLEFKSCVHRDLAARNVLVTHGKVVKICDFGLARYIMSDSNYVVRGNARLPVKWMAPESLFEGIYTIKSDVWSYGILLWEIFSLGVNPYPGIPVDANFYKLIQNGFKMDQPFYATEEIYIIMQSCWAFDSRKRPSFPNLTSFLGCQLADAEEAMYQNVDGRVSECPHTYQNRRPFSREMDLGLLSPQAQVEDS
The experiment in a line: Inhibition of human FLT3 D835Y mutant catalytic domain expressed in baculovirus assessed as substrate phosphorylation using fluorescence-labelled peptides as substrate at 2 uM after 90 mins by microfluidic peptide phosphorylation assay.

Assay [3] has as its target T3, cGMP-dependent protein kinase 1 (Homo sapiens) (UniProt Q13976).
T3 sequence (whole entry): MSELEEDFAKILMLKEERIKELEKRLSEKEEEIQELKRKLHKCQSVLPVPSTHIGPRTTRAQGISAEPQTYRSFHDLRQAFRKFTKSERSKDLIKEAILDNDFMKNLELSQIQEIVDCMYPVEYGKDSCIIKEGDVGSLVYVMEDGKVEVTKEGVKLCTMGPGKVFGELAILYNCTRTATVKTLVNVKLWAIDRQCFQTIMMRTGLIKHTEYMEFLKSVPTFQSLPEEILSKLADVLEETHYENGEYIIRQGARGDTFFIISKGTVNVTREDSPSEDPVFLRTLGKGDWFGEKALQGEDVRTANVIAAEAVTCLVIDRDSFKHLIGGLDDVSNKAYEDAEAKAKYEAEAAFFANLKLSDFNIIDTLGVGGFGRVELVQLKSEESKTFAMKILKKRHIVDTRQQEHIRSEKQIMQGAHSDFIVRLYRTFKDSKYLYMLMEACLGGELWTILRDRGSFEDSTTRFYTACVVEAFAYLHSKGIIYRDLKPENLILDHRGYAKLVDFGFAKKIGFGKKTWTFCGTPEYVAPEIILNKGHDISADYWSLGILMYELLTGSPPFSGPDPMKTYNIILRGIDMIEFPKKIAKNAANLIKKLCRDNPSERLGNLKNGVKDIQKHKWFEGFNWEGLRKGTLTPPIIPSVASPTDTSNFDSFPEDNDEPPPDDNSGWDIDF
The experiment in a line: Inhibition of human full length PKG-1a expressed in baculovirus assessed as substrate phosphorylation using fluorescence-labelled peptides as substrate at 8 uM after 90 mins by microfluidic peptide phosphorylation assay.

The target in assay [4] is Protein kinase C gamma type (Homo sapiens) (UniProt P05129). The experiment in a line: Inhibition of human truncated PKC gamma expressed in baculovirus assessed as substrate phosphorylation using fluorescence-labelled peptides as substrate at 8 uM after 90 mins by microfluidic peptide phosphorylation assay.
In assay [5] the test system is Tyrosine-protein kinase ABL1 (Homo sapiens), P00519 [H396P]. As to the kind of experiment: Inhibition of human truncated ABL H396P mutant expressed in baculovirus assessed as substrate phosphorylation using fluorescence-labelled peptides as substrate at 70 uM after 90 mins by microfluidic peptide phosphorylation assay.
Assay [6] addresses T3, cGMP-dependent protein kinase 1 (Homo sapiens). The experiment in a line: Inhibition of human full length PKG-1a expressed in baculovirus assessed as substrate phosphorylation using fluorescence-labelled peptides as substrate at 1000 uM after 90 mins by microfluidic peptide phosphorylation assay.

For the molecule `NC1CCN(c2ncnc3[nH]ccc23)CC1`, the inhibition is 1.5% in assay [1] and 0% in assay [2].

As to `NCC1CCN(c2ncnc3[nH]ccc23)CC1`, the inhibition in assay [3] amounted to 14%; in assay [4] it was 86%.

`CNCc1ccc(-c2ncnc3[nH]cnc23)cc1`: the inhibition in assay [5] is 42.5%.

Turning to `c1cnc2[nH]ccc2c1`, in assay [6], the inhibition turned out to be 90.5%.
